The values that follow come from article PMC6687188, “Novel lactate dehydrogenase inhibitors with in vivo efficacy against Cryptosporidium parvum” (PLoS Pathogens, 2019).

The target in this assay is recombinant CpLDH protein (Cryptosporidium parvum, UniProt Q9GT92, F198L/K295E/R251K).
On to `CN1CCN(CCNc2ccc(CO)c3sc4ccccc4c(=O)c23)CC1` [NSC166381], for which the “MEAN CpLDH INHIBITION (%)” value is on record as -6.81%.
Then `Cl.NC1(CCNC(=O)c2ccccc2)CCN(C(=O)c2ccccc2)CC1` [NSC680509], with -41.56%.
Under `CNc1nc(N(C)C)nc(N(C)C)n1` [NSC118742] stands -28.34%.
In the case of `CC[C@@]1(O)C[C@H](O)c2c(O)c3c(c(O)c2[C@H]1C(=O)OC)C(=O)c1cccc(O)c1C3=O` [NSC196524], the “MEAN CpLDH INHIBITION (%)” value is listed as -30.88%.
As to `CC1(c2cccc3ccccc23)OC(=O)c2ccccc21` (stereo not drawn) [NSC97703], the “MEAN CpLDH INHIBITION (%)” value is reported as -3.23%.
Under `COc1c2c(c(OC)c3c1c(=O)c1ccccc1n3C)OCO2` [NSC34757] stands -24.18%; under `COc1cc2oc3cc(=O)cc4oc(-c5ccccc5)cc(c2c2c1CCC(c1ccccc1)O2)c43` (stereo not drawn) [NSC376248], -15.03%; under `Nc1ccccc1C(=O)NC(=O)Nc1ccc(Oc2ncc(Br)cn2)c(Cl)c1` [NSC639828], -42.32%.
Under `CCOC(=O)NC(Nc1ccc(F)cc1)(C(=O)OCC)C(F)(F)F` (stereo not drawn) [NSC684845] stands -7.56%; under `O=c1cnn(C2OC(CO)C(O)C2O)c(=S)[nH]1` (stereo not drawn) [NSC146268], -43.94%; under `CC1=C(O)c2ccccc2C(=O)C1=O` [NSC11897], -2.25%.
Under `CCCCCCC1CC(=O)C1(Cl)Cl` (stereo not drawn) [NSC666526] stands -2.48%.
As to `CCCn1c(=O)c2ccccc2[n+]2c(-c3ccc([N+](=O)[O-])cc3)csc12.[Br-]` [NSC657603], the “MEAN CpLDH INHIBITION (%)” value is on record as -45.82%.
Consider `[O-][S+]1c2ccccc2N=C(c2cccc3ccccc23)CC1c1cccc2ccccc12` (stereo not drawn) [NSC634926], for which the “MEAN CpLDH INHIBITION (%)” value was -0.08%.
Then `O=C1C=C(Nc2cccnc2)c2ccccc2C1=O` [NSC637729], with -66.55%.
Then `CS(=O)(=O)c1nc(N)nc2nc[nH]c12` [NSC63446], with -4.16%; and `CCP(CC)CC.[Au+].[Cl-]` [NSC313981], with -27.27%.
Under `COc1cc2cc3c4cc(OC)c(OC)cc4cc[n+]3c(C)c2cc1OC.O=C([O-])CS(=O)(=O)O` [NSC154890] stands -11.41%; under `Cc1nc(C(N)=S)sc1C(=O)CC(=O)C(=O)Nc1c(C(C)C)cccc1C(C)C` [NSC642048], -4.29%; under `Cl.O=C1c2cccc(NCCCNCCO)c2C(=O)c2cccc(NCCCNCCO)c21` [NSC363998], -2.96%.
Consider `Oc1cc2c3c(c1)c1cc4c(cc1c[n+]3CC2)OCO4.[Cl-]` [NSC338259], for which the “MEAN CpLDH INHIBITION (%)” value is on record as -17.29%.
Then `O=C(N=Nc1c(O)[nH]c2ccccc12)c1ccccc1O` [NSC635404], with -38.57%.
Regarding `COc1cccc(/C=N\NC(=O)C(C)SC(C)C(=O)N/N=C/c2cccc(OC)c2)c1` (stereo not drawn) [NSC56737], the “MEAN CpLDH INHIBITION (%)” value was -38.88%.
Regarding `C[C@H](CN1CC(=O)NC(=O)C1)N1CC(=O)NC(=O)C1` [NSC169779], the “MEAN CpLDH INHIBITION (%)” value was -13.00%.
Then `CC(=O)[O][Pb]([O]C(C)=O)([c]1ccccc1)[c]1ccccc1` [NSC173046], with -141.42%; and `C/C=C(\CCC1NCCc2c1[nH]c1ccccc21)[Si](C)(C)C` (stereo not drawn) [NSC619165], with -14.52%; and `CC(=O)OC(C)(C)/C=C/C(=O)[C@](C)(O)[C@H]1[C@H](O)C[C@@]2(C)[C@@H]3CC=C4[C@@H](C[C@H](O)C(=O)C4(C)C)[C@]3(C)C(=O)C[C@]12C` [NSC49451], with -57.10%.
Under `COc1cc(C(C)c2cc3c(cc2OCCO)OCO3)cc(OC)c1OC` (stereo not drawn) [NSC352876] stands -6.93%; under `Nc1nc(SCc2ccccc2Cl)c2[nH]cnc2n1` [NSC36826], -1.63%.
Then `Cc1ccc(C)c2c(N=Nc3ccccc3[N+](=O)[O-])c(O)[nH]c12` [NSC118732], with -7.91%.
Take `Cc1cc(-c2nc3ccccc3s2)ccc1N` [NSC674495]: the “MEAN CpLDH INHIBITION (%)” value is listed as -21.24%.
Then `Cc1nc2c(nc1C)C(=O)c1ccccc1C2=O` [NSC602617], with -40.33%; and `Nc1nc(-c2cccs2)cs1` [NSC54297], with -31.48%.
Under `CCOC(=O)Nc1nc2ccc(Cn3cccc3)cc2[nH]1` [NSC639754] stands -8.79%.
Then `C=CCOC1OC(CO[Si](C)(C)C(C)(C)C)C(OCc2ccccc2)C(OCc2ccccc2)C1OCc1ccccc1` (stereo not drawn) [NSC624953], with -142.25%; and `O=C(NC(=O)c1c(Cl)nc2sccn12)Nc1ccc(Cl)cc1` [NSC633209], with -19.92%.
Take `C[CH2][Ge]([CH2]C)([CH2]C)[O]C(=O)CCC(=O)[O][Ge]([CH2]C)([CH2]C)[CH2]C` [NSC653558]: the “MEAN CpLDH INHIBITION (%)” value is listed as -17.98%.
Under `CN1C(Cl)=NS(=O)(=O)c2ccccc21` [NSC373853] stands -15.72%; under `CCN1/C(=C/C(C)=C/c2sc3ccccc3[n+]2CC)Sc2ccccc21.[I-]` [NSC96932], -8.62%.
As for `CCc1cccc(C(C)C)c1NC(=O)/C(=N\NC(N)=O)C(C(=O)OC)c1cnc2ccccc2n1` (stereo not drawn) [NSC642033], the “MEAN CpLDH INHIBITION (%)” value is on record as -12.26%.
On to `O=C1C(C(O)(C(F)(F)F)C(F)(F)F)CCC1C(O)(C(F)(F)F)C(F)(F)F` (stereo not drawn) [NSC664181], for which the “MEAN CpLDH INHIBITION (%)” value is recorded as -5.59%.
Under `NC(=Nc1nc(-c2ccccn2)cc2ccccc12)c1ccccn1` [NSC637578] stands -28.84%; under `NP(=O)(Oc1c2occc2cc2ccc(=O)oc12)N(CCCl)CCCl` (stereo not drawn) [NSC345081], -64.34%.
For `C/C(=N\N=C(/[Se])N1CC2CCC(CC2)C1)c1ccccn1` [NSC323241], the “MEAN CpLDH INHIBITION (%)” value is -23.75%.
With `Cc1nc(-n2nc(-c3ccccc3)cc2-c2ccccc2)sc1C(=O)/C=C/c1ccc(Cl)c(Cl)c1` [NSC640584], the “MEAN CpLDH INHIBITION (%)” value is given as -6.68%.
On to `CC(C)(C)OC(=O)NC(Cc1ccccc1)C(=O)OCN1C(=O)C2C3C=CC(C2C1=O)C1C2C(=O)N(COC(=O)C(Cc4ccccc4)NC(=O)OC(C)(C)C)C(=O)C2C31` (stereo not drawn) [NSC607316], for which the “MEAN CpLDH INHIBITION (%)” value is given as -7.22%.
Then `CCCCCn1cc2c3c(cccc31)C1C=C(C)CN(C)[C@@H]1C2.Cc1ccc(C(=O)OC(C(=O)O)C(OC(=O)c2ccc(C)cc2)C(=O)O)cc1` (stereo not drawn) [NSC600681], with -36.35%; and `CC(C)c1ccc2nc3ccc(C(=O)NCCN(C)C)cn3c(=O)c2c1` [NSC600305], with -31.37%; and `Cl.NC(=O)c1cn(C2OC(CO)C(O)C2O)c2ncnc(N)c12` (stereo not drawn) [NSC143648], with -33.40%.
Under `COc1cc(/C=C2\S/C(=N/Nc3nc(-c4ccc(Br)cc4)cs3)NC2=O)cc(OC)c1OC` [NSC657457] stands -150.87%.
Under `O=C1N[C@H]2[C@H](O)[C@H](O)[C@@H](O)[C@H](O)[C@@H]2c2cc3c(c(O)c21)OCO3` [NSC349156] stands -36.89%; under `CC(C)c1cccc(O)c(=O)c1` [NSC18804], -36.91%.
As to `Cc1c2ccc3ccccc3c2c[n+]2ccccc12.[Cl-]` [NSC28002], the “MEAN CpLDH INHIBITION (%)” value was -26.04%.
Then `O=C1C(Br)=C(Br)C(=O)c2ccccc21` [NSC618332], with -7.70%; and `Nc1ncnc2c([C@@H]3O[C@H](CO)[C@@H](O)[C@H]3O)c[nH]c12` [NSC352890], with -27.24%.
Under `COc1cc2c(c3oc4cccc(O)c4c(=O)c13)[C@@H]1C=CO[C@@H]1O2` [NSC204985] stands -20.51%; under `CC(C)CCCC(=O)CCCCCCC(=O)CCN(O)C(=O)C(N)CO.O=S(=O)(O)O` (stereo not drawn) [NSC106997], -28.98%.
Then `CCN(CC)CCNc1ccc2nc(C)n3c4ccc(OC)cc4c(=O)c1c23` [NSC637993], with -46.33%; and `O=c1c(Br)c(-c2ccccc2)[nH]c2ccccc12` [NSC12825], with -13.98%; and `O=C(C[n+]1ccc2ccccc2c1)c1ccc2ccc3ccccc3c2c1` [NSC35489], with -39.94%.
Turning to `O=[N+]([O-])c1cccc2nc3ccccc3c(NCCCNc3c4ccccc4nc4cccc([N+](=O)[O-])c34)c12` [NSC690634], the “MEAN CpLDH INHIBITION (%)” value was -61.23%.
Under `[O-][n+]1ccccc1[S-].[O-][n+]1ccccc1[S-].[Zn+2]` [NSC68093] stands -17.03%; under `CN(NC1=NCCO1)c1ccc2ccccc2c1` [NSC664286], -26.92%.
Then `COc1cc2c(c(O)c1OC)-c1c(cc(OC)c(OC)c1OC)C[C@@H](C)[C@@H](C)C2` [NSC330515], with -43.86%; and `CCCC(=O)[O-].[Na+]` [NSC174280], with -5.75%.
Under `Cl.Nc1nc(N)c2ncn(-c3ccccc3)c2n1` [NSC29603] stands -54.90%; under `OC(CBr)C(O)C(O)C(O)CBr` (stereo not drawn) [NSC616232], -42.37%.
`CC1(C)N=C(N)N=C(N)N1c1ccc(CCCCc2ccc(Cl)cc2Cl)cc1` [NSC104129]: the “MEAN CpLDH INHIBITION (%)” value is -53.74%.
Then `CCN(CC)CC.CCOc1ccc(NC(=O)N=C=[N-])cc1.[CH-]1CCCCC1.[CH-]1CCCCC1.[CH-]1CCCCC1.[Cl-].[Sn+4]` [NSC353527], with -42.92%; and `CN(C)CCOC1(Cc2ccc(F)cc2)CCC(C(C)(C)C)CC1.O=C(O)/C=C/C(=O)O` (stereo not drawn) [NSC670226], with -20.67%.
Then `CCCC[S+]([O-])CC(CO)NC(=O)/C=C/c1c(C)[nH]c(=O)[nH]c1=O` (stereo not drawn) [NSC241509], with -30.83%; and `CN1CCN(CCSC2Cc3cc(Cl)ccc3Sc3ccccc32)CC1` (stereo not drawn) [NSC635366], with -12.08%.
